{
  "source": "patent US7879861B2",
  "about": "“Combi-molecules having EGFR and DNA targeting properties” (priority 2005, dated 2011)",
  "key": {"Water solubility": {"test": "Water solubility", "type": "physicochemical"}, "MAPK (Erk1, 2)": {"test_system": "MAPK (Erk1, 2)", "test": "Heregulin-stimulated MAPK phosphorylation in MDA-MB-453 cells (Western blot)", "type": "cell-based, human", "procedure": "Autophosphorylation assay: Inhibition of receptor autophosphorylation in viable cells was determined by anti-phosphotyrosine Western blots as previously described (19). […] Equal amounts of cell lysates were analyzed by Western blot using anti-phosphotyrosine antibodies. Membranes were stripped of anti-phosphotyrosine and reprobed with anti-EGFR or anti-erbB2 antibodies (NeoMarkers, Fremont, Calif.). To study whether an inhibition is reversible or not, duplicate sets of cells were treated with 2 μM of designated compound for 2 h. One set of cells was then stimulated with EGF. The other set of cells was washed free of the compound with warmed serum-free media, incubated for 2 h, washed again, incubated for another 2 h, and incubated for a further 4 h after a subsequent wash. This set of cells was then stimulated with EGF. Western blot was performed as previously described. […] The membrane was incubated with anti-phosphorylated MAPK (Erk1,2) or anti-Erk 1,2 antibodies (Cell Signaling Technology Inc., Beverly, Mass.)."}, "MDA-MB-468 cells": {"test_system": "MDA-MB-468 cells", "test": "Annexin V binding (apoptosis), flow cytometry", "type": "cell-based, human", "procedure": "Annexin V Binding: Cells were grown in 6-well plates until confluence and then incubated with the compounds for 24 h, 48 and 72 h. The cells were then harvested, washed twice with PBS, and centrifuged. Cells (10^5) were treated with annexin V-FITC and propidium iodide (PI) using the Apoptosis Detection Kit (BD Bioscience Pharmingen, USA) and the supplier's protocol. Annexin V-FITC and PI binding were analyzed by flow cytometry. Data were collected using logarithmic amplification of both the FL1 (FITC) and FL2 (PI) channels. Quadrant analysis of co-ordinate dot plots was performed with CellQuest software. Unstained cells were used to adjust the photomultiplier voltage and for compensation setting adjustment in order to eliminate spectral overlap between the FL1 and FL2 signals."}},
  "data": [
    {"smiles": "ClCCNc1ccc2ncnc(Nc3cccc(Br)c3)c2c1", "note": "[ZR2002]", "values": [
      {"measurement": "water solubility (in words)", "setting": "Water solubility", "result": "reduced water solubility"},
      {"measurement": "heregulin-stimulated MAPK phosphorylation", "setting": "MAPK (Erk1, 2)", "result": "blocked heregulin-stimulated MAPK phosphorylation"},
      {"measurement": "concentration at which detectable levels of apoptosis start", "setting": "MDA-MB-468 cells", "result": 5, "unit": "µM"}
    ]}
  ]
}
